Patent US12029797B2, “Fatty acid derivative labeled with positron-emitting radionuclide” (ASTELLAS PHARMA INC., priority 2018, dated 2024)
“Also recorded” adds a separate entry of the source.

Key:
Format in all cases: in vivo
[1] = tested on: normal cynomolgus monkeys; assay: PET test using normal cynomolgus monkey (SUV in heart muscle and bone ROI); details: for accumulation to the heart muscle compared to [^18F]FTO / non-specific accumulation to the bone compared to [^18F]FTO: cynomolgus monkey PET, result in words; for SUV (Heart muscle): heart muscle ROI, about 300 MBq lower extremity vein, male cynomolgus monkey; for SUV (Bone): bone ROI (near the spine), n.d. = target organ cannot be confirmed in the image, ROI cannot be set
Description: Solutions containing each compound prepared in Example 1 (7-[^18F]FTO), Example 2 (6-[^18F]FTO), Reference Example 4 ([^18F]FTO), Reference Example 5 (15-[^18F]FTO), and Reference Example 6 (17-[^18F]FTO) were used to perform a heart contrast PET test using normal cynomolgus monkeys.
For performing non-invasive PET imaging, in a state in which a male cynomolgus monkey was anesthetized with inhalation anesthetic isoflurane, the monkey was held at a supine body position on a PET camera SHR17000 (manufactured by Hamamatsu Photonics K.K.), the solution containing each compound (about 300 MBq) was administered from the lower extremity vein, and continuous imaging was performed for 180 minutes or 240 minutes after the administration. The PET images were reconstructed by dynamic row-action maximum likelihood algorithm (DRAMA) and average images are obtained every 20 minutes. Then, the region of interest (ROI) was set in the heart muscle region or bone (near the spine), and the accumulation (standardized uptake value (SUV)) of each compound was calculated as {radioactivity count in the ROI (MBq/cc)/[dose (MBq)/body weight (g)]}.
The SUV values quantified by setting the ROI for the heart muscle and the bone of each compound are shown in Tables 6 and 7 as SUV (heart muscle) and SUV (bone). […] A case where the target organ cannot be confirmed in the image and the ROI cannot be set is denoted as n.d, and a case where measurement is not performed is denoted as n.t. In addition, MIP (Maximum Intensity Projection) PET images 60 minutes and 240 minutes after the administration of the compounds of Reference Example 4 ([^18F]FTO) and Example 1 (7-[^18F]FTO) are shown in FIG. 1.

DBA2 mouse = assay: PET test using normal mouse; radioactivity of isolated heart and femur by gamma counter; details: for SUV Femur: isolated femur; for SUV Femur / SUV Heart: 120 minutes after administration, about 10 MBq tail vein, male DBA2 mouse, gamma counter, average ± standard error of 5 cases; for SUV Heart: isolated heart
Protocol: A whole body contrast PET test was performed using the solution containing the compound of Example 1 (7-[^18F]FTO) or Reference Example 4 ([^18F]FTO) using a DBA2 mouse.
For performing non-invasive PET imaging, in a state in which a male DBA2 mouse was anesthetized with the inhalation anesthetic isoflurane, the mouse was held in a supine body position on a PET camera Inveon (manufactured by Siemens), the solution containing each compound (about 10 MBq) was administered from the tail vein, and after 90 minutes from the administration, PET imaging was performed for 5 minutes. The PET image was reconstructed and then image processing was performed. The heart and femur were isolated 120 minutes after the administration, and the amount of radioactivity was measured with a gamma counter 2480 WIZARD^2 (manufactured by PerkinElmer Inc.). The accumulation (SUV) of each compound was calculated as {radioactivity count (MBq/cc)/[dose (MBq)/body weight (g)] in the target organ}.

[2] = tested on: myocardial infarction model rat; assay: PET test using model rat with myocardial infarction by coronary artery ligation; details: male SD rat, about 10 MBq tail vein, 20 minutes after administration, versus untreated rat
Protocol: A myocardial infarction model was prepared by coronary artery ligation using SD rats, and a thoracic contrast PET test was performed using the solution containing the compound of Example 1 (7-[^18F]FTO).
In a state in which an untreated rat or a model rat with myocardial infarction was anesthetized with the inhalation anesthetic isoflurane using a male SD rat, the rat was held in a supine body position on a PET camera Inveon (manufactured by Siemens), and the solution containing the compound (about 10 MBq) was administered from the tail vein. After 20 minutes from the administration, PET imaging was performed for 5 minutes. The PET image was reconstructed and then image processing was performed.

[3] = 20 Minutes after administration
[4] = 60 Minutes after administration
[5] = 120 Minutes after administration
[6] = 240 Minutes after administration
[7] = mouse, extracted organs, result in words

CCCCCCCC/C=C\CC([18F])CCSCCC(=O)O (stereo not shown) [Example 1, 3-{[(5Z)-3-[^18F]fluorotetradeca-5-en-1-yl]sulfanyl}propanoic acid]
accumulation to the heart muscle compared to [^18F]FTO [1]: further increased
non-specific accumulation to the bone compared to [^18F]FTO ([1]; listed as 7-[^18F]FTO): equivalent or reduced; also recorded: not detected at all
SUV (Heart muscle) [1, 3]: 8.46
SUV (Heart muscle) [1, 4]: 9.26
SUV (Heart muscle) [1, 5]: 8.85
SUV (Heart muscle) [1, 6]: 8.35
SUV Femur (DBA2 mouse): 0.48 ± 0.04
SUV Heart (DBA2 mouse): 3.53 ± 0.77
accumulation to the heart compared to Reference Example 4 (DBA2 mouse; [7]): excellent accumulation to the heart
non-specific accumulation in the bone compared to Reference Example 4 (DBA2 mouse; [7]): low non-specific accumulation in the bone
coronal section PET image of the heart in the myocardial infarction model rat [2]: the signal was deleted in a part of the elliptical heart

CCCCCCCC/C=C\CCC([18F])CSCCC(=O)O (stereo not shown) [Example 2, 3-{[(5Z)-2-[^18F]fluorotetradeca-5-en-1-yl]sulfanyl}propanoic acid]
SUV (Bone) [1, 3]: 1.56
SUV (Bone) [1, 4]: 1.96
SUV (Bone) [1, 5]: 2.49
accumulation to the heart muscle compared to [^18F]FTO [1]: further increased
non-specific accumulation to the bone compared to [^18F]FTO [1]: equivalent or reduced
SUV (Heart muscle) [1, 3]: 8.35
SUV (Heart muscle) [1, 4]: 7.25
SUV (Heart muscle) [1, 5]: 6.60

CC([18F])CCCCCC/C=C\CCCCSCCC(=O)O (stereo not shown) [Reference Example 6, 3-{[(5Z)-13-[^18F]fluorotetradeca-5-en-1-yl]sulfanyl}propanoic acid]
SUV (Bone) [1, 3]: 1.11
SUV (Bone) [1, 4]: 1.28
SUV (Bone) [1, 5]: 1.94
SUV (Bone) [1, 6]: 3.23
accumulation to the heart muscle compared to [^18F]FTO [1]: slightly reduced
non-specific accumulation to the bone compared to [^18F]FTO ([1]; listed as 17-[^18F]FTO): equivalent or reduced; also recorded: the accumulation in the bone was also observed
SUV (Heart muscle) [1, 3]: 5.88
SUV (Heart muscle) [1, 4]: 5.78
SUV (Heart muscle) [1, 5]: 4.86
SUV (Heart muscle) [1, 6]: 2.60

O=C(O)CCSCCCC/C=C\CCCCCCCC[18F] [Reference Example 4, 3-{[(5Z)-14-[^18F]fluorotetradeca-5-en-1-yl]sulfanyl}propanoic acid, reference compound]
SUV (Bone) [1, 3]: 1.42 ± 0.10
SUV (Bone) [1, 4]: 2.27 ± 0.13
SUV (Bone) [1, 5]: 3.82 ± 0.60
SUV (Bone) [1, 6]: 6.15 ± 1.02
SUV (Heart muscle) [1, 3]: 6.45 ± 0.59
SUV (Heart muscle) [1, 4]: 6.54 ± 0.51
SUV (Heart muscle) [1, 5]: 5.90 ± 0.58
SUV (Heart muscle) [1, 6]: 4.63 ± 0.57
SUV Femur (DBA2 mouse): 2.03 ± 0.32
SUV Heart (DBA2 mouse): 1.52 ± 0.25

CCCC([18F])CCCC/C=C\CCCCSCCC(=O)O (stereo not shown) [Reference Example 5, 3-{[(5Z)-11-[^18F]fluorotetradeca-5-en-1-yl]sulfanyl}propanoic acid]
SUV (Bone) [1, 3]: 1.27
SUV (Bone) [1, 4]: 1.17
SUV (Bone) [1, 5]: 1.54
SUV (Bone) [1, 6]: 2.10
accumulation to the heart muscle compared to [^18F]FTO [1]: slightly reduced
non-specific accumulation to the bone compared to [^18F]FTO ([1]; listed as 15-[^18F]FTO): equivalent or reduced; also recorded: the accumulation in the bone was also observed
SUV (Heart muscle) [1, 3]: 4.79
SUV (Heart muscle) [1, 4]: 3.60
SUV (Heart muscle) [1, 5]: 3.21
SUV (Heart muscle) [1, 6]: 2.78
